Among the data in PubChem BioAssay AID2060363 (Molecular Pharmacology Branch, DTP, NCI, 2025) are viability, T/C and IC50 values, retold here.

The assay has as its system 156681-154-R-J1-PDC tumor spheroids, viability % test/control. Nature of the assay: Anticancer human tumor 156681-154-R-J1-PDC patient-derived melanoma cell line growth inhibition [TAK]. The settings on record: spheroids with HUVEC and MSC; for viability, T/C: stronger effect = lower value. The text has this: Combinatorial screen of targeted agents with TAK-243 and ipatasertib in multi-cell type tumor spheroids
A high-throughput screen of multi-cell type tumor spheroids was designed to identify active combinations of targeted small molecules and TAK-243 or ipatasertib. Complex spheroids include a stromal component modeled by human endothelial cells (HUVEC) and fibroblasts modeled by human mesenchymal stem cells (MSCs). The concentration ranges selected for each drug and investigational agent were based upon clinically achievable concentrations if the clinical Cmax of the agent was known.
Compounds. The drugs and investigational agents: TAK-243 (785004), ipatasertib (767898), everolimus (733504), selumetinib (741078), bortezomib (756655), trametinib (758246), ixazomib (758254), vemurafenib (761431), dabrafenib (764134), sapanisertib (764658), alpelisib (765974), and copanlisib (816437), were obtained from the National Cancer Institute (NCI) Developmental Therapeutics Program Chemical Repository. The FDA-approved anticancer drug set is available from the NCI Developmental Therapeutics Program. […] The stock solutions were prepared in dimethyl sulfoxide (DMSO, Sigma-Aldrich, St. Louis, MO, cat. D2650) at 800-fold the tested concentration and stored at -70 degrees C prior to their use. All drugs and investigational agents were tested over a range starting from a high concentration at or near the clinical Cmax and decreasing in half-log increments. If the clinical Cmax for an agent had not been determined, the highest concentration tested was 10 microM.
NCI60 Cell Culture. NCI60 cell lines were obtained from the NCI Developmental Therapeutics Program Tumor Repository. For each lot of cells, the Repository performed Applied Biosystems AmpFLSTR Identifiler testing with PCR amplification to confirm consistency with the published Identifier STR profile for each cell line. Cells were kept in continuous culture for no more than 20 passages. The optimal seeding densities for each of the cell lines at each time point assessed were determined prior to performing the concentration response studies. Briefly, the NCI60 human tumor lines were grown as monolayers in RPMI 1640 medium supplemented with 10% FBS and 2 mmol/L L-glutamine.
An additional 2 lines were from the NCI60 cell line panel including melanomas, MALME-3M and SK-MEL-2. Pooled donor human umbilical vein endothelial cells (HUVEC, Lonza, cat. CC-2519) and human mesenchymal stem cells (hMSC, Lonza, cat. PT-2501) were purchased from Lonza (Walkersville, MD).
PDMR cell lines were grown in complete medium (DC medium): Dulbecco's modified Eagle's medium (DMEM)/F12 supplemented with 5% fetal bovine serum (FBS), 2 mM L-glutamine, 100 U/mL penicillin and 100 µg/ml streptomycin, 0.4 µg/ml hydrocortisone, 10 ng/ml epidermal growth factor (EGF) recombinant human protein, 24 µg/mL adenine, and 0.1 mg/mL primocin. During culture from frozen stock vials, PDMR cells were cultured in the same medium containing 10 µM Y-27632 (see Table 3). The PDCs were cultured in complete DMEM/F12 media without 10 microM Y-27632 dihydrochloride for at least two passages prior to the screen. The pooled donor HUVEC and hMSC were cultured in endothelial cell growth medium 2 (PromoCell, Heidelberg, Germany, cat. C-22011) and mesenchymal stem cell growth medium 2 (PromoCell, cat. C-28009), respectively. For all experiments, HUVEC and hMSC were used at passages </=5.
For the pre-screen, cell seeding densities were determined from a titration spanning the range from 5,000 to 313 cells per well. The mct-spheroids including 60% malignant cells, 25% HUVEC and 15% MSC dispensed as a mixture into U-bottom Ultra-Low Attachment 384-well plates (Corning, NY)
High-throughput Drug Combination Screening.
Prior to their inoculation into 384-well plates, malignant cells, HUVEC, and hMSC were removed from T flasks using TrypLE express (Thermo Fisher Scientific, cat. 12605036) and harvested by centrifugation for 5 min at 233 x g. […]

Molecules are shown by their SMILES. Values joined by “and” are separate entries in the source; they are usually repeats but may differ in a detail not shown here. Equal entries are not always repeated.
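Note: spheroids exposed to compounds for 7 days before the endpoint.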

Consider `COc1c(OCCCN2CCOCC2)ccc2c3n(c(=NC(=O)c4cnc(N)nc4)nc12)CCN3`, for which the viability, T/C reads like this: (compound 0.00316 µM) 101% and 102%; (compound 0.01 µM) 91.1% and 89.1%; (compound 0.0316 µM) 67.9% and 77.9%; (compound 0.1 µM) 41.9% and 35.2%; (compound 0.316 µM) 13.5% and 10.8%; (compound 1 µM) 2.91% and 1.78%. For the same compound, the IC50 (curve of compound) is 67.3 nM and 67 nM.

Consider `CC(=O)Nc1cccc(-n2c(=O)n(C3CC3)c(=O)c3c(Nc4ccc(I)cc4F)n(C)c(=O)c(C)c32)c1`, for which the viability, T/C reads like this: (compound 94.9 pM) 102% and 101%; (compound 0.0003 µM) 105% and 111%; (compound 0.000949 µM) 100% and 102%; (compound 0.003 µM) 83.8% and 66.8%; (compound 0.00949 µM) 15.5% and 14.8%; (compound 0.03 µM) 8.87% and 8.9%. Further, the concentration for half-maximal inhibition (IC50) (curve of compound) was 5.3 nM and 4.35 nM.

Turning to `CC(C)n1nc(-c2ccc3oc(N)nc3c2)c2c(N)ncnc21` + CC(C)NCC(C(=O)N1CCN(c2ncnc3c2C(C)CC3O)CC1)c1ccc(Cl)cc1, the IC50 was 26 nM (curve of first compound, second compound 0.3 µM); 12.5 nM (curve of first compound, second compound 0.949 µM); 2.4 nM (curve of first compound, second compound 3 µM); < 0.316 nM (curve of first compound, second compound 9.49 µM); < 0.316 nM (curve of first compound, second compound 30 µM). The viability, T/C by setting is: (second compound 0.3 µM, first compound 0.000316 µM) 94.5%; (second compound 0.3 µM, first compound 0.001 µM) 91.8%; (second compound 0.3 µM, first compound 0.00316 µM) 84.1%; (second compound 0.3 µM, first compound 0.01 µM) 69.4%; (second compound 0.3 µM, first compound 0.0316 µM) 45.9%; (second compound 0.3 µM, first compound 0.1 µM) 25.2%. The viability, T/C (second compound 0.949 µM, first compound 0.000316 µM) is 83.4%; the viability, T/C (second compound 0.949 µM, first compound 0.001 µM) was 85.4%; the viability, T/C (second compound 0.949 µM, first compound 0.00316 µM) was 63.8%; the viability, T/C (second compound 0.949 µM, first compound 0.01 µM) was 58.6%; the viability, T/C (second compound 0.949 µM, first compound 0.0316 µM) was 32.1%; the viability, T/C (second compound 0.949 µM, first compound 0.1 µM) was 20%. In addition, the viability, T/C runs as follows: (second compound 3 µM, first compound 0.000316 µM) 65.4%; (second compound 3 µM, first compound 0.001 µM) 57.3%; (second compound 3 µM, first compound 0.00316 µM) 46.2%; (second compound 3 µM, first compound 0.01 µM) 38.3%; (second compound 3 µM, first compound 0.0316 µM) 19.7%; (second compound 3 µM, first compound 0.1 µM) 11%. The viability, T/C is 39.9% (second compound 9.49 µM, first compound 0.000316 µM); 33.4% (second compound 9.49 µM, first compound 0.001 µM); 23.3% (second compound 9.49 µM, first compound 0.00316 µM); 16.3% (second compound 9.49 µM, first compound 0.01 µM); 11% (second compound 9.49 µM, first compound 0.0316 µM); 4.26% (second compound 9.49 µM, first compound 0.1 µM). Moreover, the viability, T/C is, setting by setting: (second compound 30 µM, first compound 0.000316 µM) 15.5%; (second compound 30 µM, first compound 0.001 µM) 14.4%; (second compound 30 µM, first compound 0.00316 µM) 12.3%; (second compound 30 µM, first compound 0.01 µM) 7.31%; (second compound 30 µM, first compound 0.0316 µM) 3.39%; (second compound 30 µM, first compound 0.1 µM) 1.21%.

Consider `CC(C)CC(NC(=O)C(Cc1ccccc1)NC(=O)c1cnccn1)B(O)O` (stereo not given), for which the viability, T/C reads like this: (compound 31.6 pM) 91.3% and 98.6%; (compound 0.0001 µM) 90.4% and 95.9%; (compound 0.000316 µM) 98.8% and 103%; (compound 0.001 µM) 94.7% and 103%; (compound 0.00316 µM) 39.8% and 19.6%; (compound 0.01 µM) 0.36% and 0.32%. For the same compound, the concentration for half-maximal inhibition (IC50) (curve of compound) was 2.55 nM and 2.05 nM.

Regarding `CC(C)CC(NC(=O)CNC(=O)c1cc(Cl)ccc1Cl)B1OC(=O)CC(CC(=O)O)(C(=O)O)O1` (stereo not given), the viability, T/C (compound 0.000316 µM) was 104% and 94.9%; the viability, T/C (compound 0.001 µM) was 101% and 104%; the viability, T/C (compound 0.00316 µM) was 99.5% and 101%; the viability, T/C (compound 0.01 µM) is 95.7% and 90.9%; the viability, T/C (compound 0.0316 µM) is 18.1% and 10.3%; the viability, T/C (compound 0.1 µM) is 0.44% and 0.46%. Moreover, the concentration for half-maximal inhibition (IC50) (curve of compound) is 19.7 nM and 17.9 nM.

With `Cc1nc(NC(=O)N2CCCC2C(N)=O)sc1-c1ccnc(C(C)(C)C(F)(F)F)c1` (stereo not given), the viability, T/C (compound 0.0316 µM) was 97.2% and 99.7%; the viability, T/C (compound 0.1 µM) is 94.9% and 98.4%; the viability, T/C (compound 0.316 µM) is 86.1% and 86.6%; the viability, T/C (compound 1 µM) was 86.8% and 74.4%; the viability, T/C (compound 3.16 µM) is 67.9% and 64.5%; the viability, T/C (compound 10 µM) was 52.8% and 56.2%. For the setting “curve of compound”, the half-inhibitory concentration (IC50) is > 10000 nM.

Broadly, the viability, T/C is the result in the treated group divided by that in the control group, in per cent. What is called IC50 is the concentration at which inhibition is half-maximal.
